According to patent US10722575B2, “Use of 1,3-diphenylprop-2-en-1-one derivatives for treating liver disorders” (GENFIT, priority 2009, dated 2020):

Tests used:
[1] = tested on: hApoE2 KI/PPARalpha KO mice; test: hApoE2 KI/PPARalpha KO mice on Western diet, hepatic gene expression by quantitative RT-PCR; type: in vivo; conditions: 30 mg/kg/day by gavage, 6 weeks
Protocol: (§1) The compounds of the General Formula (I) were tested in vivo in a high fat diet mice model. Dyslipidemic “humanized” hApoE2 KI deficient for PPARalpha were fed a Western diet and treated during 6 weeks. The compounds of interest, including the Compound 29 of WO 2004/005233 at 30 mg/kg/day and the Compound 1 of WO 2007/147879 at 30 mg/kg/day were orally administrated by gavage. At the end of the protocol, animals were sacrificed, livers were harvested and the hepatic expression of relevant genes implicated in the liver inflammation and the fibrosis processes were evaluated by quantitative RT-PCR. In parallel, liver triglycerides contents were evaluated (Panels A-D). Statistical analysis was performed as indicated for FIG. 1.
(§2) Animals were fed a Western diet (20% saturated fat and 0.2% cholesterol, Harlan Teklad TD88137) during 2 weeks in the first study, that involved the daily administration of Cpd 29 (at 30 mg/kg/day by oral gavage), and during 6 weeks in the second study, that involved the daily administration of Compound 1 of WO 2007147879 (Cpd1, at 30 mg/kg/day by oral gavage). Control animals were treated with vehicle only (Carboxymethlycellulose 1%+Tween-80 0.1%). Animals had access to food and water ad libitum.
At the end of the studies, the animals were weighed and sacrificed under anesthesia. Blood was collected from the retro-orbital sinus; plasma was obtained by centrifugation (4 000 rpm, at 4° C. for 15 min) and subsequently frozen and stored at −20° C. Tissues and livers were isolated and snap-frozen in liquid nitrogen and stored at −80° C. for subsequent analysis (gene expression and biochemistry) or fixed in 4% paraformaldehyde for histology.
Total RNA was isolated from frozen livers using the NucleoSpin® 96 RNA kit (Macherey Nagel), according to the manufacturer's instructions. Reverse transcription was performed on 1 μg of total RNA by action of 1 μl of MMLV-RT enzyme (Invitrogen) during 1 hour at 37° C. in a total volume of 30 μl. The reaction conditions were 1× buffer (Invitrogen), 1.5 mM DTT (Invitrogen), 0.18 mM dNTPs (Promega), 200 ng pdN6 (Amersham), 30U RNase inhibitor (Promega). Quantitative PCR was then carried out using the MyiQ Single-Color Real-Time PCR Detection System (Biorad). Briefly PCR reactions were performed in 96 well plates on 5 μl of diluted reverse transcription mix using the iQ SYBR Green Supermix kit. The reaction conditions were: 25 μl of volume reaction, 3 mM of MgCl2, and 0.5 μl of each reverse and forward primer solutions (10 pMol), Tm of 60° C.
The quantity of fluorescence emitted is directly proportional to the quantity of complementary DNA present at the start of the reaction and amplified during the PCR. The relative levels of expression were determined using the standard curve for each transcript. The results were then normalized in regard to the signals obtained with the 36B4 control (a reference transcript for hepatic gene expression). The induction factor, i.e. the ratio between the relative signal induced by the compound according to the invention and the average of the values relating to the control group, was then calculated for each sample. The higher this factor, the more the compound promotes target gene expression. The final result is depicted as the average of the induction values in each experimental group.
(§3) In another study, the liver-specific anti-inflammatory and anti-fibrotic properties effects of Cpd 29 and Compound 1 of WO 2007/147879 (Cpd 1) were evaluated in the hApoE2 KI/PPARalpha KO mice that were fed a Western diet and daily treated with the selected compounds during 6 weeks.

[2] = tested on: hApoE2 KI/PPARalpha KO mice; test: hApoE2 KI/PPARalpha KO mice on Western diet, hepatic lipid analysis (liver triglycerides); type: in vivo; conditions: 30 mg/kg/day by gavage, 6 weeks, FIG. 4D
Protocol: as §1
as §2, with “Control animals were treated with vehicle only (Carboxymethlycellulose 1%+Tween-80 0.1%). Animals had access to food and water ad libitum.” left out
as §3

SMILES: CSc1ccc(C(=O)CCc2cc(C)c(OC(C)(C)C(=O)O)c(C)c2)cc1 [Cpd 1, 2-[2,6-dimethyl-4-[3-[4-(methylthio)phenyl]-3-oxo-propyl]phenoxy]-2-methylpropanoic acid]
- liver expression of TNFα ([1]; FIG. 4A): inhibited
- liver expression of TGFβ ([1]; FIG. 4B): inhibited
- liver expression of collagen ([1]; FIG. 4C): inhibited
- triglycerides accumulation in the liver [2]: prevented
